Results taken from patent US20210215714A1, “COMPLEMENT ALTERNATIVE PATHWAY-ASSOCIATED NEPHROPATHY BIOMARKERS” (Achillion Pharmaceuticals, Inc., priority 2018, published 2021).
“Also recorded” adds a separate entry of the source.

Tested on: sC5b-9
Assay: Phase 2a study: urinary sC5b-9 (MicroVue sC5b-9 Enzyme Immunoassay);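 note: urine from C3 glomerulopathy or IC-MPGN patients, sandwich ELISA capturing sC5b-9 via C9-ring monoclonal with HRP detection read at 450 nm, values raw or normalized to creatinine or albumin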
Conditions: for sC5b-9/ALB / sC5b-9/Cr / Urine sC5b-9: Patient F, 200 mg TID; for sC5b-9/ALB GEOMEAN / sC5b-9/ALB MEAN / sC5b-9/Cr MEAN / Urine sC5b-9 GEOMEAN / Urine sC5b-9 MEAN / sC5b-9/Cr GEOMEAN: patients A-F
Description: 10 patients with either C3 Glomerulopathy (C3G) or Immune-Complex Membranoproliferative Glomerulonephritis (IC-MPGN) are to be enrolled across two dose groups. […] Inclusion criteria include a clinical diagnosis of C3G (C3 glomerulonephritis [C3GN] or dense deposit disease [DDD], the 2 types of C3G) or idiopathic immune-complex membranoproliferative glomerulonephritis (IC-MPGN) by renal biopsy for at least 3 months prior to dosing, with the pathologic diagnosis verified by review of the renal biopsy by the study central pathologist. Patients must have low C3 levels (<50% of the lower limit of normal) and normal or near-normal C4 levels (>90% of the lower limit of normal).
To measure urinary sC5b-9 production, patient urine samples were tested utilizing the MicroVue sC5b-9 Enzyme Immunoassay for the quantitation of sC5b-9 in urine. […] The samples were tested utilizing the MicroVue sC5b-9 Enzyme Immunoassay for the quantitation of sC5b-9 urine, which is a three-step procedure utilizing a micro-assay plate coated with a mouse monoclonal antibody that binds specifically to the C9 ring of sC5b-9, HRP-conjugated antibodies to antigens of sC5b-9, and a chromogenic substrate. In step 1, standards, controls, and test specimens are added to micro-assay wells pre-coated with an anti-sC5b-9 specific monoclonal antibody. sC5b-9 present in the Standards, Controls, or specimens will bind to the immobilized sC5b-9 monoclonal antibody. After incubation, a wash cycle removes unbound material. […] In step 2, horseradish peroxidase (HRP)-conjugated antibodies to antigens of sC5b-9 are added to each test well. The enzyme conjugated antibodies bind to sC5b-9 that was captured by the monoclonal anti-sC5b-9 bound on the surface of the micro-assay wells. After incubation, a wash cycle removes unbound, excess conjugate. In step 3, a chromogenic enzyme substrate is added to each micro-assay well. The bound HRP-conjugate reacts with the substrate, forming a blue color. After incubation the enzyme reaction is stopped chemically, the color changes to yellow, and the color intensity is measured spectrophotometrically at 450 nm. The color intensity of the reaction mixture is proportional to the concentration of sC5b-9 present in the test specimens, standards, and controls. […] Measurements of urinary biomarkers are typically normalized to urine creatinine or albumin levels to account for variation in biomarker levels due to changes in urinary filtration rate.

SMILES: CC(=O)c1nn(CC(=O)N2C[C@H](F)C[C@H]2C(=O)Nc2cccc(Br)n2)c2ccc(-c3cnc(C)nc3)cc12 [Compound 1, (2S,4R)-1-(2-(3-acetyl-5-(2-methylpyrimidin-5-yl)-1H-indazol-1-yl)acetyl)-N-(6-bromopyridin-2-yl)-4-fluoropyrrolidine-2-carboxamide]
- sC5b-9/ALB (Day 17 Taper): 12 ng/mg
- sC5b-9/Cr (Day 17 Taper): 5.9 µg/mmol
- Urine sC5b-9 (Day 21 Taper): 104 ng/mL
- sC5b-9/ALB (Day 21 Taper): 24 ng/mg
- sC5b-9/Cr (Day 21 Taper): 8.2 µg/mmol
- Urine sC5b-9 (Follow-Up Day 24): 51 ng/mL
- sC5b-9/ALB (Follow-Up Day 24): 34 ng/mg
- sC5b-9/Cr (Follow-Up Day 24): 9.5 µg/mmol
- Urine sC5b-9 (Follow-Up Day 28): 65 ng/mL
- sC5b-9/ALB (Follow-Up Day 28): 57 ng/mg
- sC5b-9/Cr (Follow-Up Day 28): 14.4 µg/mmol
- Urine sC5b-9 (Follow-Up Day 49): 180 ng/mL
- sC5b-9/ALB (Follow-Up Day 49): 59 ng/mg
- sC5b-9/Cr (Follow-Up Day 49): 33.2 µg/mmol
- sC5b-9/ALB GEOMEAN (Day 1/0 Hour): 125.0 ng/mg
- sC5b-9/ALB MEAN (Day 1/0 Hour): 335.0 ng/mg
- sC5b-9/Cr MEAN (Day 1/0 Hour): 163.6 µg/mmol
- Urine sC5b-9 GEOMEAN (Day 1 predose): 210 ng/mL
- Urine sC5b-9 MEAN (Day 1 predose): 1120 ng/mL
- Urine sC5b-9 GEOMEAN (Day 4): 94 ng/mL
- Urine sC5b-9 MEAN (Day 4): 472 ng/mL
- sC5b-9/ALB GEOMEAN (Day 4): 80.6 ng/mg
- sC5b-9/ALB MEAN (Day 4): 165.3 ng/mg
- sC5b-9/Cr GEOMEAN (Day 4): 14.0 µg/mmol
- sC5b-9/Cr MEAN (Day 4): 37.0 µg/mmol
- Urine sC5b-9 GEOMEAN (Day 7): 91 ng/mL
- Urine sC5b-9 MEAN (Day 7): 483 ng/mL
- sC5b-9/ALB GEOMEAN (Day 7/0 Hour): 102.8 ng/mg
- sC5b-9/ALB MEAN (Day 7/0 Hour): 171.5 ng/mg
- sC5b-9/Cr GEOMEAN (Day 7/0 Hour): 17.1 µg/mmol
- sC5b-9/Cr MEAN (Day 7/0 Hour): 38.0 µg/mmol
- Urine sC5b-9 GEOMEAN (Day 10): 56 ng/mL
- Urine sC5b-9 MEAN (Day 10): 231 ng/mL
- Urine sC5b-9 GEOMEAN (Day 15 Taper): 66 ng/mL
- Urine sC5b-9 MEAN (Day 15 Taper): 588 ng/mL
- sC5b-9/ALB GEOMEAN (Day 15 Taper): 48.2 ng/mg
- sC5b-9/ALB MEAN (Day 15 Taper): 192.6 ng/mg
- sC5b-9/Cr GEOMEAN (Day 15 Taper): 11.9 µg/mmol
- sC5b-9/Cr MEAN (Day 15 Taper): 55.8 µg/mmol
- Urine sC5b-9 GEOMEAN (Day 17 Taper): 71 ng/mL
- Urine sC5b-9 MEAN (Day 17 Taper): 488 ng/mL
- sC5b-9/ALB GEOMEAN (Day 17 Taper): 51.5 ng/mg
- sC5b-9/ALB MEAN (Day 17 Taper): 191.3 ng/mg
- sC5b-9/Cr GEOMEAN (Day 17 Taper): 11.6 µg/mmol
- sC5b-9/Cr MEAN (Day 17 Taper): 45.3 µg/mmol
- Urine sC5b-9 GEOMEAN (Day 21 Taper): 99 ng/mL
- Urine sC5b-9 MEAN (Day 21 Taper): 468 ng/mL
- sC5b-9/ALB GEOMEAN (Day 21 Taper): 76.3 ng/mg
- sC5b-9/ALB MEAN (Day 21 Taper): 190.1 ng/mg
- sC5b-9/Cr GEOMEAN (Day 21 Taper): 15.2 µg/mmol
- sC5b-9/Cr MEAN (Day 21 Taper): 58.3 µg/mmol
- Urine sC5b-9 GEOMEAN (Follow-Up Day 24): 108 ng/mL
- Urine sC5b-9 MEAN (Follow-Up Day 24): 724 ng/mL
- sC5b-9/ALB GEOMEAN (Follow-Up Day 24): 92.3 ng/mg
- sC5b-9/ALB MEAN (Follow-Up Day 24): 289.8 ng/mg
- sC5b-9/Cr GEOMEAN (Follow-Up Day 24): 17.8 µg/mmol
- sC5b-9/Cr MEAN (Follow-Up Day 24): 115.8 µg/mmol
- Urine sC5b-9 GEOMEAN (Follow-Up Day 28): 113 ng/mL
- Urine sC5b-9 MEAN (Follow-Up Day 28): 457 ng/mL
- sC5b-9/ALB GEOMEAN (Follow-Up Day 28): 80.5 ng/mg
- sC5b-9/ALB MEAN (Follow-Up Day 28): 200.5 ng/mg
- sC5b-9/Cr MEAN (Follow-Up Day 28): 64.2 µg/mmol
- Urine sC5b-9 GEOMEAN (Follow-Up Day 49): 162 ng/mL
- Urine sC5b-9 MEAN (Follow-Up Day 49): 2440 ng/mL
- sC5b-9/ALB GEOMEAN (Follow-Up Day 49): 123.3 ng/mg
- sC5b-9/ALB MEAN (Follow-Up Day 49): 1111.7 ng/mg
- sC5b-9/Cr GEOMEAN (Follow-Up Day 49): 23.5 µg/mmol
- sC5b-9/Cr MEAN (Follow-Up Day 49): 159.5 µg/mmol
- Urinary sC5b-9 levels (two-week treatment): reduced significantly; also recorded: reduced in all patients
- Urinary sC5b-9 levels normalized to urinary creatinine or albumin (two-week treatment): reduced significantly
